Columns and labels:
liver = experiment: Liver histopathology (HE staining) after MGCD0103; type: in vivo, rat
Procedure: After pharmacokinetic properties analysis, rats were deeply anesthetized with 10% chloral hydrate (i.p., […]). The livers of control group and MGCD0103 treated groups were rapidly isolated and immersed in freshly prepared 4% w/v formaldehyde (0.1 M phosphate buffer, pH 7.2) for 48 h and then embedded in paraffin. Then 5 μm thick histologic sections were prepared and stained with routine HE method (hematoxylin and eosin). The morphological changes of liver were observed under light microscope.

CYP3A2 = biological target: T1, CYP3A2 (Rattus norvegicus, UniProt P05183); experiment: Cocktail method, testosterone probe: effect of MGCD0103 on CYP3A2 activity; type: in vivo; conditions: 7-day intragastric MGCD0103 20, 40, 80 mg/kg
T1 construct: we investigated the effects of 7-day intragastric administration of MGCD0103 on the activity of CYP enzymes in vivo; from tissue; host or cells: living rats (in vivo)
T1 sequence (P05183 1-504): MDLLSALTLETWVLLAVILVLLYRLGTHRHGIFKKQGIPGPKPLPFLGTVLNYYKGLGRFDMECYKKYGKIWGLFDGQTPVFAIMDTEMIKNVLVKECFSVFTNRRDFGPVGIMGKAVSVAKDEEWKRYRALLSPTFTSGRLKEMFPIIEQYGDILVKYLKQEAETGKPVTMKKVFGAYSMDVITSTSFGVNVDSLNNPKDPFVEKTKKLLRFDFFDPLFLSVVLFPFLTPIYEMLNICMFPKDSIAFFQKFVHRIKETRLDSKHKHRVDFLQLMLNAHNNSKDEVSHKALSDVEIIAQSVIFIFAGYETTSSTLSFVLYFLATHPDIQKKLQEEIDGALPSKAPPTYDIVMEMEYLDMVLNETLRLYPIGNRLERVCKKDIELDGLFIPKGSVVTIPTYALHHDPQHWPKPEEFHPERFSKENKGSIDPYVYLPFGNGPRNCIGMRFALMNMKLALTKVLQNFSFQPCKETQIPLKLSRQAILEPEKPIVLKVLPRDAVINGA
Procedure: (§1) Forty rats (220 ± 20 g) were randomly divided into four different dosages of MGCD0103 groups (Low group, Medium group, High group, and control group with 10 rats in each group). MGCD0103 was dissolved in corn oil as suspension at three different concentrations (20, 40, and 80 mg/mL). Three different MGCD0103 groups (Low group, Medium group, and High group) were respectively given MGCD0103 20, 40, and 80 mg/kg one time by intragastric administration at every morning and last for 7 days. Control group were given saline by same administration method.
(§2) Blood (0.3 mL) samples were collected into heparinized 1.5 mL polythene tubes from the tail vein at 0.0833, 0.5, 1, 2, 3, 4, 6, 8, 12, 24, and 48 h after intragastric administration of six probe drugs. 100 μL of plasma was obtained from blood sample after centrifugation at 4000 g for 10 min. In a 1.5 mL centrifuge tube, 200 μL of acetonitrile (containing 50 ng/mL IS) was added into 100 μL of collected plasma sample. After vortex-mixing for 1.0 min, the sample was centrifuged at 13000 g for 15 min. Then supernatant (2 μL) was injected into the UPLC-MS/MS system for analysis.
(§3) Concentration of plasma probe drugs versus time was analyzed by Version 3.0 Data Analysis System (Wenzhou Medical University, China). The main pharmacokinetic parameters of the MGCD0103 group and control group were analyzed by SPSS l8.0 statistical software.

CYP1A2 = biological target: T2, CYP1A2 (Rattus norvegicus, UniProt P04799); experiment: Cocktail method, phenacetin probe: effect of MGCD0103 on CYP1A2 activity; type: in vivo; conditions: 7-day intragastric MGCD0103 20, 40, 80 mg/kg
T2 construct: we investigated the effects of 7-day intragastric administration of MGCD0103 on the activity of CYP enzymes in vivo; from tissue; host or cells: living rats (in vivo)
T2 sequence (P04799 1-513): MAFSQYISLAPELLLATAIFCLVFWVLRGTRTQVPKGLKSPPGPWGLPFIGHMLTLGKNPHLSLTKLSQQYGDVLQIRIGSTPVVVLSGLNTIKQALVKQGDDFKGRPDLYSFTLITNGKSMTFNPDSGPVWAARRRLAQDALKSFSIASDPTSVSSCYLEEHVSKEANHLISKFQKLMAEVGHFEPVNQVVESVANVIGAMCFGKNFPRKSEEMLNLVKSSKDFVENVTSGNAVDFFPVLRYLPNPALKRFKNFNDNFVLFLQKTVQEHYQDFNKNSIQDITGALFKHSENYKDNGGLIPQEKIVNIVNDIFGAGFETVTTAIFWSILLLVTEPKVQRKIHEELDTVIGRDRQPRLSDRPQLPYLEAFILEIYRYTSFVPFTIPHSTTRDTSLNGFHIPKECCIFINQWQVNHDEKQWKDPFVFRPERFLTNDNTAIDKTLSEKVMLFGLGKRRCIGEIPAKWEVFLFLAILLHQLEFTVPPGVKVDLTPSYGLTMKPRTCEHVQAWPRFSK
Procedure: as §1, §2, §3

CYP2D4 = biological target: T3, CYP2D4 (Rattus norvegicus, UniProt Q64680); experiment: Cocktail method, metoprolol probe: effect of MGCD0103 on CYP2D4 activity; type: in vivo; conditions: 7-day intragastric MGCD0103 20, 40, 80 mg/kg
T3 construct: we investigated the effects of 7-day intragastric administration of MGCD0103 on the activity of CYP enzymes in vivo; from tissue; host or cells: living rats (in vivo)
T3 sequence (Q64680 1-500): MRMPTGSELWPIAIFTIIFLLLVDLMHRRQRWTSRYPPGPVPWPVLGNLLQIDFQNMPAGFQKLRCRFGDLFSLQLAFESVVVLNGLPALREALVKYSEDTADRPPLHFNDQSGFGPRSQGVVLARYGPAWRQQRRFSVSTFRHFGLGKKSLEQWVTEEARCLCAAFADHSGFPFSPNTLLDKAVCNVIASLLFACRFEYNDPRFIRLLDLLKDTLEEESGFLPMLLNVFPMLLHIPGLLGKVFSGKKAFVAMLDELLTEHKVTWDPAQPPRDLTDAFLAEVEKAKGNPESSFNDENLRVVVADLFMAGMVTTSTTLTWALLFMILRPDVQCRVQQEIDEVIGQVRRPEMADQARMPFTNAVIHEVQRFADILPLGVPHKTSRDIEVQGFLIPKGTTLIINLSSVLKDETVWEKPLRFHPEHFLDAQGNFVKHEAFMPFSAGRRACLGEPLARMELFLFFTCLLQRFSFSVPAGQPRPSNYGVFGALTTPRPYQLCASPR
Procedure: as §1, §2, §3

CYP2B1 = biological target: T4, CYP2B1 (Rattus norvegicus, UniProt P00176); experiment: Cocktail method, bupropion probe: effect of MGCD0103 on CYP2B1 activity; type: in vivo; conditions: 7-day intragastric MGCD0103 20, 40, 80 mg/kg
T4 construct: we investigated the effects of 7-day intragastric administration of MGCD0103 on the activity of CYP enzymes in vivo; from tissue; host or cells: living rats (in vivo)
T4 sequence (P00176 1-491): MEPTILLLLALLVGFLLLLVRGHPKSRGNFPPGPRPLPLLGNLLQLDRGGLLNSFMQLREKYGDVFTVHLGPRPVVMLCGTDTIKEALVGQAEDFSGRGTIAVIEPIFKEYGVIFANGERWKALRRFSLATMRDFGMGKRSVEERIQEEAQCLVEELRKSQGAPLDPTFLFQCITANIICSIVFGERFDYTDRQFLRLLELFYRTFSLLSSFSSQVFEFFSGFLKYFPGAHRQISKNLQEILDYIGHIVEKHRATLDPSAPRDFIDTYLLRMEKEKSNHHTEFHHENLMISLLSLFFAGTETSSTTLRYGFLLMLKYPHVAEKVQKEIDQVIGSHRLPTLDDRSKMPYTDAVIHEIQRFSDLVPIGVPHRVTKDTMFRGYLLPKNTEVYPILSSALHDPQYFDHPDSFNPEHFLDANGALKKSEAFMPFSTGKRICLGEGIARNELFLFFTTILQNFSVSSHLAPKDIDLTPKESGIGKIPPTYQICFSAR
Procedure: as §1, §2, §3

CYP2C11 = experiment: Cocktail method, tolbutamide probe: effect of MGCD0103 on CYP2C11 activity; type: in vivo, rat
Procedure: as §1, §2, §3

morphological changes of liver (liver; low dose group, 20 mg/kg i.g. 7 days): liver cells become slightly edematous
effect on activity of CYP3A2 enzyme (CYP3A2): not able to induce or inhibit
effect on activity of CYP1A2 enzyme (CYP1A2): not able to induce or inhibit
effect on activity of CYP2D4 enzyme (CYP2D4): not able to induce or inhibit
effect on activity of CYP2B1 enzyme (CYP2B1): not able to induce or inhibit
effect on metabolism of tolbutamide (CYP2C11; 7-day intragastric administration of MGCD0103, high dosage (80 mg/kg), rat): slightly induces
effect on activities of CYP2C11 (CYP2C11; continuous 7-day intragastric administration of MGCD0103, rats): slightly induces
Compound: Nc1ccccc1NC(=O)c1ccc(CNc2nccc(-c3cccnc3)n2)cc1 [MGCD0103, Mocetinostat]
hepatotoxicity (pathological changes of liver) (liver; 20, 40, 80 mg/kg i.g. 7 days, probe drugs also given): hepatotoxic and its toxicity is dose-dependent
morphological changes of liver (liver; high dose group, 80 mg/kg i.g. 7 days): liver cells with steatosis and small, atrophy, hyperchromatic karyopyknosis
morphological changes of liver (liver; middle dose group, 40 mg/kg i.g. 7 days): liver cells experienced extensive fatty changes

Reference: publication PMC4556830, “The Effect of MGCD0103 on CYP450 Isoforms Activity of Rats by Cocktail Method” (BioMed Research International, 2015)
